The record followed here is patent US6495699B2, “Metalloproteinase inhibitors, pharmaceutical compositions containing them, and their use” (Agouron Pharmaceuticals Inc., priority 1996, dated 2002).

Molecules are shown by their SMILES.

For data set [1], the target named is T1, human collagenase-3 (Coll3) (Homo sapiens, UniProt P45452).
T1 construct: the catalytic domain was liberated by treatment with 2 mM APMA at room temperature overnight; ubiquitin (N, cleaved yes); made in house; host or cells: E. coli
The data set is described as follows: Fluorometric MCA-peptide hydrolysis assay, collagenase-3 (Coll3). To be noted: apparent Ki; 10 μM MCA peptide substrate, 37° C., pH 7.5; read-out: Coll3 (Ki,app). Format: biochemical.

Another data set can be described thus: LogP. Format: physicochemical.
Data set [2] addresses T2, human progelatinase A (GelA), catalytic and fibronectin-like portion (Homo sapiens, UniProt P08253).
T2 construct: The catalytic and fibronectin-like portion of human progelatinase A (GelA) was expressed as a fusion protein with ubiquitin; ubiquitin; made in house; host or cells: E. coli
The data set is described as follows: Fluorometric MCA-peptide hydrolysis assay, gelatinase A (GelA). It counts as biochemical. To be noted: apparent Ki; 10 μM MCA peptide substrate, 37° C., pH 7.5. Summed up: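 E. coli-expressed ubiquitin fusion of human proGelA catalytic plus fibronectin-like domains, autoactivated; 10 μM MCA-Pro-Leu-Gly-Leu-DPA-Ala-Arg-NH2, pH 7.5 Tricine/NaCl/CaCl2/Zn buffer, 2% DMSO, 37° C, 60 min. Fluorescence 328/393 nm; steady-state rates fitted to competitive inhibition or Morrison tight-binding equation giving Ki,app (≈Ki since [S]<<Km).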

The target in data set [3] is T3, catalytic domain of human stromelysin (Hsln) (Homo sapiens, UniProt P08254).
T3 construct: The catalytic domain of human stromelysin (Hsln) was obtained by expression and purification of a C-terminally truncated prostromelysin-1; made in house; host or cells: E. coli BL21
T3 sequence (P08254 100-272 limits assumed): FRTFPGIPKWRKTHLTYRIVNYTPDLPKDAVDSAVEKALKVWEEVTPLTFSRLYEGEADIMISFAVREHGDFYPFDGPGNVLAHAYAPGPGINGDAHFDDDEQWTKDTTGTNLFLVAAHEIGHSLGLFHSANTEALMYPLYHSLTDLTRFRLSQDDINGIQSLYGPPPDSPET
Put plainly: Fluorometric MCA-peptide hydrolysis assay, stromelysin (Hsln). It counts as biochemical. To be noted: apparent Ki; 10 μM MCA peptide substrate, 37° C., pH 7.5; read-out: Hsln (Ki,app). The gist of the method:
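APMA-activated E. coli–expressed catalytic domain, with 10 μM MCA-Pro-Leu-Gly-Leu-DPA-Ala-Arg-NH2 at 37 °C. Buffer was pH 7.5 Tricine with NaCl, CaCl2, zinc acetate and 2% final DMSO; fluorescence read at ex 328/em 393 nm over 60 min. Ki,app from steady-state rates fitted to competitive or Morrison tight-binding equations.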

Another data set deals with T4, Human matrilysin (Matr) (Homo sapiens, UniProt P09237).
T4 construct: the catalytic domain was liberated by treatment with 2 mM APMA at 37° C. for 2 hours; ubiquitin (cleaved yes); made in house; host or cells: E. coli
T4 sequence (P09237 95-267): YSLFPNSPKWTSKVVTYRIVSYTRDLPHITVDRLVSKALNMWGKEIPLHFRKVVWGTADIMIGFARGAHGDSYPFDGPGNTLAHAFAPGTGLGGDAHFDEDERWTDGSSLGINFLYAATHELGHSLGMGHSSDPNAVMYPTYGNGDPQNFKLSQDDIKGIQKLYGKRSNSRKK
Put plainly: Fluorometric MCA-peptide hydrolysis assay, matrilysin (Matr). Format: biochemical. To be noted: apparent Ki; 10 μM MCA peptide substrate, 37° C., pH 7.5; read-out: Matr (Ki,app). The gist of the method: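 Catalytic domain of E. coli-expressed human matrilysin assayed at 37° C, pH 7.5 Tricine buffer, 2% DMSO, with 10 μM MCA-Pro-Leu-Gly-Leu-DPA-Ala-Arg-NH2; fluorescence ex 328/em 393 nm over 60 min. Ki,app from steady-state rates fitted to competitive inhibition or Morrison tight-binding equation.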

Data set [4] has as its target T5, fibroblast collagenase-1 catalytic domain (HFC) (Homo sapiens, UniProt P03956).
T5 construct: The catalytic domain of human collagenase-1 was expressed as a fusion protein with ubiquitin in E. coli; ubiquitin (cleaved yes); made in house; host or cells: E. coli
T5 sequence (P03956 100-269 limits assumed): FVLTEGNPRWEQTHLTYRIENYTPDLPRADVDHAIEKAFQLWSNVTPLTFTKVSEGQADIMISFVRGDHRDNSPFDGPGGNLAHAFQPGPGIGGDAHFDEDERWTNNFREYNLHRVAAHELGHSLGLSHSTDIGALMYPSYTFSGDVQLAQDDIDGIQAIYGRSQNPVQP
The data set is described as follows: Fluorometric MCA-peptide hydrolysis assay, fibroblast collagenase-1 (HFC). To be noted: apparent Ki; 10 μM MCA peptide substrate, 37° C., pH 7.5; read-out: HFC (Ki,app). Format: biochemical. As to the method: The catalytic domain of human collagenase-1 was expressed as a fusion protein with ubiquitin in E. coli (see Gehring, E. R., J Biol. Chem., 1995, 270, 22507). After purification of the fusion protein, the fibroblast collagenase-1 catalytic domain (HFC) was released either by treatment with purified, active stromelysin-1 (1:50 w/w ratio), which generated nearly 100% N-terminal Phe1, or by autoprocessing the concentrated collagenase-1 fusion and then incubating at 37° C. for 1 hour. Final purification was completed using zinc chelate chromatography.
Assays were performed in assay buffer (50 mM Tricine pH 7.5, 200 mM sodium chloride, 10 mM calcium chloride, 0.5 mM zinc acetate containing 2% dimethyl sulfoxide (DMSO)) once the substrate and inhibitor were diluted into it. Stock solutions of inhibitors were prepared in 100% DMSO. Stock solutions of the substrate were prepared in 100% DMSO at a concentration of 6 mM.
The assay method was based on the hydrolysis of MCA-Pro-Leu-Gly-Leu-DPA-Ala-Arg-NH2 (American Peptide Co.) at 37° C. (see Knight, C. G. et al., FEBS, 1992, 296, 263-266). The fluorescence changes were monitored with a Perkin-Elmer LS-50B fluorimeter using an excitation wavelength of 328 nm and an emission wavelength of 393 nm. The substrate concentration used in the assays was 10 μM. The inhibitor was diluted into the assays from a solution in 100% DMSO, and controls substituted an equal volume of DMSO so that the final DMSO concentration from inhibitor and substrate dilution in all assays was 2%. […] Proper determination of steady-state rates of substrate cleavage required assay lengths of 60 minutes to allow for complete equilibration of the enzyme-inhibitor complex.
The Km for the MCA peptide substrate with the matrix metalloproteinases is quite high and exceeds its solubility under assay conditions. Consequently, the apparent Ki (Ki,app) was determined to describe the strength of inhibition. However, in this case, Ki,app would be essentially equal to Ki since [S]<<Km. For the determination of Ki,app, the concentration of the inhibitor was varied at a constant and low concentration of substrate and the steady-state rates of fluorescence change determined. In most cases absorptive quench due to the presence of ligand was not observed. For slow-binding inhibitors, onset of inhibition curves were collected for at least 45 minutes so that equilibrium was established. Steady-state rates of fluorescence change were obtained by fitting a curve to an equation for a single exponential decay containing a linear phase. The fitted value of the linear phase was taken as the steady-state rate. The steady-state rates were fitted to the Michaelis equation describing competitive inhibition by non-linear methods. Data resulting from tight-binding inhibition was analyzed, and Ki,app determined by fitting the data to the tight-binding equation of Morrison (Biochem. Biophys. Acta, vol. 185, pp. 269-286 (1969)) by non-linear methods.

The nature of data set [5]: Determination of inhibitor concentration in plasma after oral dosing. Format: in vivo, Sprague Dawley rats. To be noted: Sprague-Dawley, rat plasma. On the procedure: The dosing solution consisted of the inhibitor dissolved in either a molar equivalent of HCl in water (vehicle A), in 60% aq. propylene glycol (vehicle B), or in 2.8 mg/mL sodium bicarbonate in 60% aqueous propylene glycol (vehicle C), yielding a final concentration that ranged from 10-15 mg/ml. Sprague Dawley rats (Hilltop Lab Animals, Scottsdale, Pa.) were dosed as a function of drug weight per body weight, usually 50 mgper kg. Blood was taken from the rats and centrifuged, and the plasma was stored in the freezer. Drug was extracted from a 50 μl plasma aliquot by adding 1 ml of acetonitrile, shaking for 2 minutes, centrifuging for 15 minutes at 4000 rpm, collecting the supernatant, and then evaporating it to dryness under a stream of nitrogen. The samples were reconstituted with 130 μl of mobile phase, shook for 2 minutes, and centrifuged for 15 minutes at 4000 rpm. The supernatant was collected and the samples were analyzed by injecting 100 μl of supernatant onto HPLC.
Quantitation of drug levels was accomplished by generating a standard curve of known drug amounts that were extracted from added plasma. Drug levels were plotted as a function of time and analyzed to provide area under the curve (AUC) and maximum concentration (Cmax) values.

Setting [6] is: dose 50 mg/kg, vehicle B (60% aq. propylene glycol).
[7] abbreviates: dose 50 mg/kg, vehicle B, dosed as the benzyl ester prodrug.
Where [8] appears, read: dose 25 mg/kg, vehicle A (molar equivalent of HCl in water).
[9] abbreviates: dose 50 mg/kg, vehicle A, dosed as the benzyl ester prodrug.
[10] abbreviates: dose 25 mg/kg, vehicle C (2.8 mg/mL sodium bicarbonate in 60% aqueous propylene glycol).

T2 sequence (P08253 110-465 limits assumed): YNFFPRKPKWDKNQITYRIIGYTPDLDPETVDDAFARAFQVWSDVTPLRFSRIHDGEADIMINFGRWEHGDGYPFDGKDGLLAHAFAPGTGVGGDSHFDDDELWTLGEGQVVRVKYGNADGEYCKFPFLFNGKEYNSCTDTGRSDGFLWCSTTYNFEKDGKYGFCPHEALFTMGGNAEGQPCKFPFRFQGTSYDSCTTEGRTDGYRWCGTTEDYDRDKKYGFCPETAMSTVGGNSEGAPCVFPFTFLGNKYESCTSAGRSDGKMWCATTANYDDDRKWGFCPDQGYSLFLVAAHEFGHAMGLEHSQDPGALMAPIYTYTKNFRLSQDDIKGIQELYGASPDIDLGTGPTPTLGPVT

As usually defined, the logP is the decadic logarithm of the partition coefficient of the neutral form, usually between octanol and water. The low end stands for a more hydrophilic compound, the high end for a more lipophilic compound. On to `CNC(=O)[C@@H](NC(=O)[C@@H](CC(=O)O)n1ccc(-c2ccccc2)c1)C(C)(C)C` [1(b), N-[2,2-Dimethyl-1(S)-(methylcarbamoyl)propyl]-3(R)-(3-phenyl-1H-pyrrol-1-yl)succinamic acid], for which the Ki in data set [1] is 18.3 nM; in data set [3], 2000 nM. The logP in “LogP” was -0.83. In data set [2], the GelA (Ki,app) stood at 5.91 nM.

Regarding `O=C(O)C[C@H](C(=O)N[C@H]1Cc2cn(c3ccccc23)CCOCCNC1=O)n1ccc(-c2ccccc2)c1` [Example 1(c), N-(8-Oxo-4-oxa-1,7-diazatricyclo[9.6.1.0^12,17]octadeca-11(18), 12,14,16-tetraen-9(S)-yl)-3(R)-(3-phenyl-1H-pyrrol-1-yl)succinamic Acid], the Ki in data set [1] amounted to 0.868 nM; in data set [3], 486 nM; at Human matrilysin (Matr), 16900 nM. In addition, the logP in “LogP” was -0.97. In addition, the GelA (Ki,app) in data set [2] stood at 2 nM.

By melting point is commonly meant the temperature of the solid-liquid transition. The AUC is concentration integrated over time. A word on the Cmax: it is the highest concentration seen after dosing. In the case of `CNC(=O)[C@@H](NC(=O)[C@@H](CC(=O)O)n1ccc(-c2ccc(C#N)cc2)c1)C(C)(C)C` [Example 1(m), 3 (R)-[3-(4-Cyanophenyl)-1H-pyrrol-1-yl]-N-[2,2-dimethyl-1(S)-(methylcarbamoyl)propyl]succinamic Acid], the melting point was 138 to 140 °C. For the same molecule, in data set [1], the Ki came to 1 nM. Further, the Ki in data set [4] was 997 nM. Moreover, in data set [5] (setting [6]), the AUC is 0.967 µg·h/mL and the Cmax is 0.59 µg/mL. Further, the GelA (Ki,app) in data set [2] was determined as 0.41 nM. Besides, the Ki in data set [3] was determined as 50 nM.

In the case of `CNC(=O)[C@@H](NC(=O)[C@@H](CC(=O)O)n1ccc(-c2ccc(-c3ccncc3)cc2)c1)C(C)(C)C` [Example 6(b), N-(2,2-Dimethyl-1(S)-(methylcarbamoyl)propyl)-3(R)-[3-(4-(pyridin-4-yl)phenyl)-1H-pyrrol-1-yl]succinamic Acid], the Ki in data set [1] came out at 0.21 nM; in data set [4], 2900 nM; in data set [3], 3.6 nM. Besides, the AUC in data set [5] (setting [7]) is 0.617 µg·h/mL. Further, in data set [5] (setting [7]), the Cmax was 0.3 µg/mL. Also, in data set [2], the GelA (Ki,app) came to 0.066 nM.

As to `CC1(C)COC(=O)[C@H]1NC(=O)[C@@H](CC(=O)O)n1ccc(-c2ccc(-c3ccncc3)cc2)c1` [Example 6(c), N-(4,4-Dimethyl-2-oxo-tetrahydrofuran-3(S)-yl)-3(R)-[3-[4-(pyridin-4-yl)phenyl]-1H-pyrrol-1-yl]succinamic Acid], the Ki in data set [1] came to 7.6 nM; in data set [3], 54 nM; on Human matrilysin (Matr), 5000 nM. Moreover, the AUC in data set [5] (setting [8]) is 0.933 µg·h/mL; in data set [5] (setting [9]) it was 4.42 µg·h/mL. Further, the Cmax in data set [5] (setting [8]) was found to be 0.45 µg/mL; in data set [5] (setting [9]), 1.14 µg/mL. In addition, the GelA (Ki,app) in data set [2] was found to be 0.806 nM.

Take `CC(C)(C)[C@H](NC(=O)[C@@H](CC(=O)O)n1ccc(-c2ccc(-c3ccncc3)cc2)c1)C(=O)Nc1ccncc1` [Example 7(b), N-[2,2-Dimethyl-1(S)-(pyridin-4-ylcarbamoyl)propyl]-3(R)-[3-[4-(pyridin-4-yl)phenyl]-1H-pyrrol-1-yl]succinamic Acid]: the Ki in data set [1] was 0.01 nM; in data set [4], 453 nM; in data set [3], 0.29 nM; at Human matrilysin (Matr), 5 nM. Moreover, in data set [5] (setting [6]), the AUC is 0.4 µg·h/mL. This molecule had a Cmax in data set [5] (setting [6]) of 0.21 µg/mL. Also, the GelA (Ki,app) in data set [2] turned out to be 0.007 nM.

In the case of `CNC(=O)[C@@H](NC(=O)[C@@H](CC(=O)O)c1ccn(-c2ccc(F)cc2)c1)C(C)(C)C` [Example 14(a), N-[2,2-Dimethyl-1(S)-(methylcarbamoyl)propyl]-3(S)-[1-(4-fluorophenyl)-1H-pyrrol-3-yl]succinamic Acid], in data set [1], the Ki turned out to be 7.2 nM. In data set [5] (setting [6]), this molecule gave an AUC of 1.57 µg·h/mL and a Cmax of 0.82 µg/mL. In data set [2], the GelA (Ki,app) came to 4.3 nM. In addition, the Ki in data set [3] stood at 558 nM.

In data set [5] (setting [10]), `CC1(C)COC(=O)[C@H]1NC(=O)[C@@H](CC(=O)O)c1ccn(-c2ccc(-c3ccc(C#N)cc3)cc2)c1` [Example 14(d), 3(S)-[1-(4′-Cyanobiphenyl-4-yl)-1H-pyrrol-3-yl]-N-(4,4-dimethyl-2-oxo-tetrahydrofuran-3(S)-yl)succinamic Acid] had an AUC of 5.82 µg·h/mL and a Cmax of 1.37 µg/mL. Also, the GelA (Ki,app) in data set [2] is 0.9 nM. Also, the Ki in data set [3] turned out to be 19 nM.
